Results on one compound are retold here after PMC5218480 (PLoS ONE, 2017).

The assay concerns MV-4-11 cells. Nature of the assay: Gene expression microarray analysis (Affymetrix PrimeView) and GSEA. The format is cell-based, human. Further details: RFU PODN (11730768_x_at) / Fold change /veh PODN (11730768_x_at) / RFU LINC00158 (11744669_a_at) / Fold change /veh LINC00158 (11744669_a_at) / RFU DUSP10 (11751237_a_at) / Fold change /veh DUSP10 (11751237_a_at) / RFU ID3 (11757404_x_at) / Fold change /veh ID3 (11757404_x_at) / RFU PLEKHG5 (11737974_s_at) / Fold change /veh PLEKHG5 (11737974_s_at) / RFU LRRC4B (11730491_at) / Fold change /veh LRRC4B (11730491_at) / RFU GIMAP4 (11747438_a_at) / Fold change /veh GIMAP4 (11747438_a_at) / RFU KRT8 (11758183_x_at) / Fold change /veh KRT8 (11758183_x_at) / RFU CNN1 (11734310_a_at) / Fold change /veh CNN1 (11734310_a_at) / RFU VPS37D (11726825_at) / Fold change /veh VPS37D (11726825_at) / RFU C10orf10 (11716522_x_at) / Fold change /veh C10orf10 (11716522_x_at) / RFU KIR2DL2 /// KIR2DL4 /// KIR2DL5A /// KIR2DL5B /// KIR2DS1 /// KIR2DS2 /// KIR2DS3 /// KIR2DS4 /// KIR3DL3 /// KIR3DL3 /// KIR3DS1 (11738374_at) / Fold change /veh KIR2DL2 /// KIR2DL4 /// KIR2DL5A /// KIR2DL5B /// KIR2DS1 /// KIR2DS2 /// KIR2DS3 /// KIR2DS4 /// KIR3DL3 /// KIR3DL3 /// KIR3DS1 (11738374_at) / RFU C1QL1 (11718748_at) / Fold change /veh C1QL1 (11718748_at) / RFU TMPRSS4 (11747572_a_at) / Fold change /veh TMPRSS4 (11747572_a_at) / RFU HAMP (11756126_x_at) / Fold change /veh HAMP (11756126_x_at) / RFU RNFT2 (11725882_a_at) / Fold change /veh RNFT2 (11725882_a_at) / RFU NR4A2 (11747474_a_at) / Fold change /veh NR4A2 (11747474_a_at) / RFU ABCC12 (11746883_a_at) / Fold change /veh ABCC12 (11746883_a_at) / RFU TMEM136 (11760407_x_at) / Fold change /veh TMEM136 (11760407_x_at) / RFU CLDN22 /// WWC2 (11732394_at) / Fold change /veh CLDN22 /// WWC2 (11732394_at) / RFU HLA-DPB1 (11760878_x_at) / Fold change /veh HLA-DPB1 (11760878_x_at) / RFU SPINT1 (11716480_a_at) / Fold change /veh SPINT1 (11716480_a_at) / RFU GAP43 (11754022_s_at) / Fold change /veh GAP43 (11754022_s_at) / RFU A4GNT (11735810_at) / Fold change /veh A4GNT (11735810_at) / RFU PRB3 (11715151_x_at) / Fold change /veh PRB3 (11715151_x_at) / RFU TUBB4B (11761932_at) / Fold change /veh TUBB4B (11761932_at) / RFU CAPN14 (11732068_a_at) / Fold change /veh CAPN14 (11732068_a_at) / RFU TMCC2 (11721928_a_at) / Fold change /veh TMCC2 (11721928_a_at) / RFU IRGQ (11745062_a_at) / Fold change /veh IRGQ (11745062_a_at) / RFU FAM174B (11720279_a_at) / Fold change /veh FAM174B (11720279_a_at) / RFU TMPRSS4 (11748680_a_at) / Fold change /veh TMPRSS4 (11748680_a_at) / RFU FAM212B (11763350_a_at) / Fold change /veh FAM212B (11763350_a_at) / RFU PLEKHG5 (11743358_a_at) / Fold change /veh PLEKHG5 (11743358_a_at) / RFU ZSCAN30 (11745921_a_at) / Fold change /veh ZSCAN30 (11745921_a_at) / RFU CMKLR1 (11741424_a_at) / Fold change /veh CMKLR1 (11741424_a_at) / RFU LOC101060620 /// MAPK8IP1 (11723275_at) / Fold change /veh LOC101060620 /// MAPK8IP1 (11723275_at) / RFU SPTSSB (11747773_x_at) / Fold change /veh SPTSSB (11747773_x_at) / RFU PRSS12 (11739890_at) / Fold change /veh PRSS12 (11739890_at) / RFU BIN1 (11741810_x_at) / Fold change /veh BIN1 (11741810_x_at) / RFU WNT11 (11732464_a_at) / Fold change /veh WNT11 (11732464_a_at) / RFU C10orf10 (11716521_a_at) / Fold change /veh C10orf10 (11716521_a_at) / RFU C5orf56 (11738089_at) / Fold change /veh C5orf56 (11738089_at) / RFU CYB561 (11721691_x_at) / Fold change /veh CYB561 (11721691_x_at) / RFU ANKRD19P (11752326_a_at) / Fold change /veh ANKRD19P (11752326_a_at) / RFU OR2T12 /// OR2T33 /// OR2T8 (11738714_s_at) / Fold change /veh OR2T12 /// OR2T33 /// OR2T8 (11738714_s_at) / RFU VCAN (11748164_a_at) / Fold change /veh VCAN (11748164_a_at) / RFU JSRP1 (11732532_at) / Fold change /veh JSRP1 (11732532_at) / RFU KRTAP10-11 (11738290_x_at) / Fold change /veh KRTAP10-11 (11738290_x_at) / RFU MYO3A (11730013_a_at) / Fold change /veh MYO3A (11730013_a_at) / RFU EBF3 (11725865_a_at) / Fold change /veh EBF3 (11725865_a_at) / RFU CAMK2N1 (11719241_x_at) / Fold change /veh CAMK2N1 (11719241_x_at) / RFU C5orf56 (11738088_a_at) / Fold change /veh C5orf56 (11738088_a_at) / RFU OLFML3 (11715873_a_at) / Fold change /veh OLFML3 (11715873_a_at) / RFU LOC100653217 /// NTM (11731650_a_at) / Fold change /veh LOC100653217 /// NTM (11731650_a_at) / RFU MAPK11 (11762145_a_at) / Fold change /veh MAPK11 (11762145_a_at) / RFU FIZ1 (11724087_x_at) / Fold change /veh FIZ1 (11724087_x_at) / RFU OASL (11726364_x_at) / Fold change /veh OASL (11726364_x_at) / RFU SOX15 (11748057_x_at) / Fold change /veh SOX15 (11748057_x_at) / RFU CD79A (11719716_a_at) / Fold change /veh CD79A (11719716_a_at) / RFU HIST1H1D (11736915_at) / Fold change /veh HIST1H1D (11736915_at) / RFU CASKIN2 (11723855_a_at) / Fold change /veh CASKIN2 (11723855_a_at) / RFU LOC730098 (11760151_x_at) / Fold change /veh LOC730098 (11760151_x_at) / RFU OR4N2 (11742367_at) / Fold change /veh OR4N2 (11742367_at) / RFU PRRT2 (11749266_a_at) / Fold change /veh PRRT2 (11749266_a_at) / RFU SNX32 (11753110_a_at) / Fold change /veh SNX32 (11753110_a_at) / RFU CDHR5 (11726645_a_at) / Fold change /veh CDHR5 (11726645_a_at) / RFU RCAN1 (11760418_a_at) / Fold change /veh RCAN1 (11760418_a_at) / RFU FAM167A (11723789_a_at) / Fold change /veh FAM167A (11723789_a_at) / RFU FAM26E (11764081_at) / Fold change /veh FAM26E (11764081_at) / RFU ISYNA1 (11749810_s_at) / Fold change /veh ISYNA1 (11749810_s_at) / RFU ACY1 (11761880_at) / Fold change /veh ACY1 (11761880_at) / RFU 11764098_at / Fold change /veh 11764098_at / RFU SAMD14 (11745864_x_at) / Fold change /veh SAMD14 (11745864_x_at) / RFU NPB (11741838_a_at) / Fold change /veh NPB (11741838_a_at) / RFU TMPRSS6 (11731388_a_at) / Fold change /veh TMPRSS6 (11731388_a_at) / RFU KRTAP10-2 (11738614_at) / Fold change /veh KRTAP10-2 (11738614_at) / RFU ARHGAP8 /// PRR5-ARHGAP8 (11727945_x_at) / Fold change /veh ARHGAP8 /// PRR5-ARHGAP8 (11727945_x_at) / RFU KRTAP5-7 /// NADSYN1 (11734609_at) / Fold change /veh KRTAP5-7 /// NADSYN1 (11734609_at) / RFU RASL12 (11751679_a_at) / Fold change /veh RASL12 (11751679_a_at) / RFU CDKN2B (11736163_a_at) / Fold change /veh CDKN2B (11736163_a_at) / RFU PRF1 (11729649_at) / Fold change /veh PRF1 (11729649_at) / RFU, ZNF638 /// ZNF638-IT1 / Fold change vs veh, ZNF638 /// ZNF638-IT1 / RFU, PANK3 / Fold change vs veh, PANK3 / RFU, SH3YL1 / Fold change vs veh, SH3YL1 / RFU, ZEB2 / Fold change vs veh, ZEB2 / RFU, NRIP1 / Fold change vs veh, NRIP1 / RFU, PTTG1IP / Fold change vs veh, PTTG1IP / RFU, CAPN2 / Fold change vs veh, CAPN2 / RFU, MED14 / Fold change vs veh, MED14 / RFU, SNORA58 / Fold change vs veh, SNORA58 / RFU, C1orf63 / Fold change vs veh, C1orf63 / RFU, LRRFIP1 / Fold change vs veh, LRRFIP1 / RFU, NDUFAF7 / Fold change vs veh, NDUFAF7 / RFU, SLC12A2 / Fold change vs veh, SLC12A2 / RFU, IBTK / Fold change vs veh, IBTK / RFU, ESF1 / Fold change vs veh, ESF1 / Fold change vs veh, TMEM50B / RFU, TAOK1 / Fold change vs veh, TAOK1 / RFU, ACBD3 / Fold change vs veh, ACBD3 / RFU, TMA16 / Fold change vs veh, TMA16 / RFU, RWDD3 / Fold change vs veh, RWDD3 / RFU, BCAT1 / Fold change vs veh, BCAT1 / RFU, EDEM3 / Fold change vs veh, EDEM3 / RFU, TMEM33 / Fold change vs veh, TMEM33 / RFU, WDR75 / Fold change vs veh, WDR75 / RFU, AHCTF1 / Fold change vs veh, AHCTF1 / RFU, TFRC / Fold change vs veh, TFRC / RFU, ZDHHC17 / Fold change vs veh, ZDHHC17 / RFU, NOM1 / Fold change vs veh, NOM1 / RFU, ARL8B / Fold change vs veh, ARL8B / RFU, ZBTB11 / Fold change vs veh, ZBTB11 / RFU, TAMM41 / Fold change vs veh, TAMM41 / RFU, KIAA1704 /// LOC100996395 / Fold change vs veh, KIAA1704 /// LOC100996395 / RFU, ING1 / Fold change vs veh, ING1 / RFU, TRMT61B / Fold change vs veh, TRMT61B / RFU, FUBP3 / Fold change vs veh, FUBP3 / RFU, TP53 / Fold change vs veh, TP53 / RFU, TNKS2 / Fold change vs veh, TNKS2 / RFU, ZFP14 / Fold change vs veh, ZFP14 / RFU, ACTR2 / Fold change vs veh, ACTR2 / RFU, PPP3R1 / Fold change vs veh, PPP3R1 / RFU, PIK3R1 / Fold change vs veh, PIK3R1 / RFU, HNRNPA1 / Fold change vs veh, HNRNPA1 / RFU, RNF170 / Fold change vs veh, RNF170 / RFU, ZNF28 / Fold change vs veh, ZNF28 / RFU, RNGTT / Fold change vs veh, RNGTT / RFU, OGT / Fold change vs veh, OGT / RFU, BRD1 / Fold change vs veh, BRD1 / RFU, MARS / Fold change vs veh, MARS / RFU, ZNF655 / Fold change vs veh, ZNF655 / RFU, FAHD1 / Fold change vs veh, FAHD1 / RFU, BDP1 / Fold change vs veh, BDP1 / RFU, LRRCC1 / Fold change vs veh, LRRCC1 / RFU, ARID1A / Fold change vs veh, ARID1A / RFU, ZNF146 / Fold change vs veh, ZNF146 / RFU, ZNF330 / Fold change vs veh, ZNF330 / RFU, GPN3 / Fold change vs veh, GPN3 / RFU, C9orf123 / Fold change vs veh, C9orf123 / RFU, N4BP2L2 / Fold change vs veh, N4BP2L2 / RFU, ARFIP1 / Fold change vs veh, ARFIP1 / RFU, FAM179B / Fold change vs veh, FAM179B / RFU, BCL10 / Fold change vs veh, BCL10 / RFU, UHRF1BP1L / Fold change vs veh, UHRF1BP1L / RFU, BET1 / Fold change vs veh, BET1 / RFU, CNOT2 / Fold change vs veh, CNOT2 / RFU, ZNF268 / Fold change vs veh, ZNF268 / Fold change vs veh, ZNF507 / RFU, DGCR2 / Fold change vs veh, DGCR2 / RFU, WDSUB1 / Fold change vs veh, WDSUB1 / Fold change vs veh, HSP90B1 /// MIR3652 / RFU, ADSS / Fold change vs veh, ADSS / RFU, GK / Fold change vs veh, GK / RFU, ZNF148 / Fold change vs veh, ZNF148 / RFU, TAF9 / Fold change vs veh, TAF9 / RFU, SLC1A5 / Fold change vs veh, SLC1A5 / RFU, SLMO2 / Fold change vs veh, SLMO2 / RFU, ABCC4 / Fold change vs veh, ABCC4 / RFU, LOC101060439 /// RAP1B / Fold change vs veh, LOC101060439 /// RAP1B / RFU, RFX7 / Fold change vs veh, RFX7 / RFU, GTPBP10 / Fold change vs veh, GTPBP10 / RFU, CNEP1R1 / Fold change vs veh, CNEP1R1 / RFU, BIVM-ERCC5 /// ERCC5 / Fold change vs veh, BIVM-ERCC5 /// ERCC5 / RFU, ILF3 / Fold change vs veh, ILF3 / RFU 11762660_at / Fold change /veh 11762660_at / RFU VCAN (11757783_s_at) / Fold change /veh VCAN (11757783_s_at) / RFU DDX43 (11728927_at) / Fold change /veh DDX43 (11728927_at) / RFU KRT8 (11758188_x_at) / Fold change /veh KRT8 (11758188_x_at) / RFU NKD1 (11759106_at) / Fold change /veh NKD1 (11759106_at) / RFU SRD5A1 (11742802_a_at) / Fold change /veh SRD5A1 (11742802_a_at) / RFU TPSAB1 /// TPSB2 (11721975_s_at) / Fold change /veh TPSAB1 /// TPSB2 (11721975_s_at) / RFU GSTM3 (11746129_a_at) / Fold change /veh GSTM3 (11746129_a_at) / RFU IL23R (11737362_x_at) / Fold change /veh IL23R (11737362_x_at) / RFU TMEM51 (11727254_a_at) / Fold change /veh TMEM51 (11727254_a_at) / RFU PIWIL2 (11732686_x_at) / Fold change /veh PIWIL2 (11732686_x_at) / RFU ORM1 (11744905_x_at) / Fold change /veh ORM1 (11744905_x_at) / RFU CCDC152 (11743942_at) / Fold change /veh CCDC152 (11743942_at) / RFU ECM1 (11717891_a_at) / Fold change /veh ECM1 (11717891_a_at) / RFU IL23R (11748794_a_at) / Fold change /veh IL23R (11748794_a_at) / RFU TNFAIP8L3 (11732012_x_at) / Fold change /veh TNFAIP8L3 (11732012_x_at) / RFU MBOAT4 (11741988_at) / Fold change /veh MBOAT4 (11741988_at) / RFU 11764193_at / Fold change /veh 11764193_at / RFU TMEM53 (11763286_at) / Fold change /veh TMEM53 (11763286_at) / RFU MAGEB2 (11727129_at) / Fold change /veh MAGEB2 (11727129_at) / RFU TMEM200A (11744735_a_at) / Fold change /veh TMEM200A (11744735_a_at) / RFU CCDC152 (11751479_a_at) / Fold change /veh CCDC152 (11751479_a_at) / RFU FAM211A (11726209_a_at) / Fold change /veh FAM211A (11726209_a_at) / RFU RGS16 (11746705_a_at) / Fold change /veh RGS16 (11746705_a_at) / RFU VCAN (11755009_s_at) / Fold change /veh VCAN (11755009_s_at) / RFU RHOB (11743442_s_at) / Fold change /veh RHOB (11743442_s_at) / RFU RGS16 (11720943_a_at) / Fold change /veh RGS16 (11720943_a_at) / RFU RGS16 (11720944_at) / Fold change /veh RGS16 (11720944_at) / RFU, VPS4B / Fold change vs veh, VPS4B / RFU, CREB1 / Fold change vs veh, CREB1 / RFU, DNAJC13 / Fold change vs veh, DNAJC13 / RFU, GNAQ / Fold change vs veh, GNAQ / RFU, CDK5R1 / Fold change vs veh, CDK5R1 / RFU, ZRANB3 / Fold change vs veh, ZRANB3 / RFU, CUL4A / Fold change vs veh, CUL4A / RFU, CCNY / Fold change vs veh, CCNY / RFU, UFL1 / Fold change vs veh, UFL1 / RFU, COG3 / Fold change vs veh, COG3 / RFU, DIAPH2 / Fold change vs veh, DIAPH2 / RFU, SKA2 / Fold change vs veh, SKA2 / RFU, AFF3 / Fold change vs veh, AFF3 / RFU, LMF1 / Fold change vs veh, LMF1 / RFU, IPO11 / Fold change vs veh, IPO11 / RFU, DFFB / Fold change vs veh, DFFB / RFU, FOXP1 / Fold change vs veh, FOXP1 / RFU, CARD8 / Fold change vs veh, CARD8 / RFU, STRN3 / Fold change vs veh, STRN3 / RFU, ADK / Fold change vs veh, ADK / RFU, RASSF2 / Fold change vs veh, RASSF2 / RFU, WIPF1 / Fold change vs veh, WIPF1 / RFU, LARP1B / Fold change vs veh, LARP1B / RFU, RASA1 / Fold change vs veh, RASA1 / RFU, RB1 / Fold change vs veh, RB1 / RFU, PPFIA1 / Fold change vs veh, PPFIA1 / RFU, MAT2A / Fold change vs veh, MAT2A / RFU, CCT5 / Fold change vs veh, CCT5 / RFU, WDR92 / Fold change vs veh, WDR92 / RFU, CUX1 / Fold change vs veh, CUX1 / RFU, TTC7A / Fold change vs veh, TTC7A / RFU, TMEM135 / Fold change vs veh, TMEM135 / RFU, DEPTOR / Fold change vs veh, DEPTOR / RFU, CPM / Fold change vs veh, CPM / RFU, DNAJB6 / Fold change vs veh, DNAJB6 / RFU, CACNA2D3 / Fold change vs veh, CACNA2D3 / RFU, DTX4 / Fold change vs veh, DTX4 / RFU, TFCP2 / Fold change vs veh, TFCP2 / RFU, GMCL1 /// GMCL1P1 / Fold change vs veh, GMCL1 /// GMCL1P1 / RFU, AEBP2 / Fold change vs veh, AEBP2 / RFU, SNHG1 /// SNORD22 /// SNORD25 /// SNORD26 /// SNORD27 /// SNORD28 /// SNORD29 /// SNORD31 / Fold change vs veh, SNHG1 /// SNORD22 /// SNORD25 /// SNORD26 /// SNORD27 /// SNORD28 /// SNORD29 /// SNORD31 / Fold change (Aza/veh), C12orf56 (ProbeSet 11735607_a_at) / Fold change (ACY-1035/veh), C12orf56 (ProbeSet 11735607_a_at) / Fold change (Aza/veh), FGFR1OP (ProbeSet 11751329_s_at) / Fold change (ACY-1035/veh), FGFR1OP (ProbeSet 11751329_s_at) / Fold change (Aza/veh), VPS36 (ProbeSet 11739960_a_at) / Fold change (ACY-1035/veh), VPS36 (ProbeSet 11739960_a_at) / RFU SYPL1 (11715823_x_at) / Fold change /veh SYPL1 (11715823_x_at) / RFU IGFBP7 (11715501_s_at) / Fold change /veh IGFBP7 (11715501_s_at) / RFU REEP3 (11722064_at) / Fold change /veh REEP3 (11722064_at) / RFU IGLL1 (11728026_x_at) / Fold change /veh IGLL1 (11728026_x_at): dose or concentration left out as unconfirmed. As to conditions: MV-4-11 cells, 48 hours.

For the compound `Nc1ccc(-c2cccs2)cc1NC(=O)c1ccc2c(c1)cc(C1CC1)n2CCN1CCOCC1` [ACY-1035], the “RFU MAPK11 (11762145_a_at)” value is given as 21.16 RFU.
